Measurements from patent US9962351B2, “Small molecule substance for improving sensitivity of bacteria to antibiotics” (priority 2012, dated 2018).
“And” between values parts separate entries of the source, which are not always exact repeats. Equal entries are not always repeated. Where two headings read alike, the source gives them in different places.

What was measured:
[1] = tested on: ampicillin-resistant Escherichia coli biofilm; assay: Mouse urinary tract catheter biofilm model, bacterial survival rate in biofilm; type: in vivo; conditions: mice, tail intravenous injection twice-daily for 3 days; glutamine 100 mg kg−1, glucose 100 mg kg−1, ampicillin 320 mg kg−1 as present
Protocol: (§1) Single clone of ampicillin-resistant Escherichia coli was selected and incubated in LB medium overnight, then transferred into 2 mL fresh LB medium according to the proportion of 1:200 dilutions and transferred to 6 mm ultraviolet sterilized PE-50 catheters. The catheters were inoculated in 1 mL LB at 37 for 24 h. The culture medium was changed every 24 hours for 3 days. The biofilm of ampicillin-resistant bacteria in PE50 catheters were washed with 1 mL sterile phosphate-buffered saline five times to remove loosely adherent cells, and then transferred to 1.5 mL EP tubes.
In vivo experiments in mice, female mice (5 weeks, weighing 18-20 g) received surgical implantation in the urinary tract of PESO catheter tubes. The mice were randomly divided into six groups in 48 h after the surgery, five each group. The six groups included treatment with saline (group 1), 100 mg kg^−1 glutamine (group 2), 320 mg kg^−1 ampicillin (group 3), 100 mg kg^−1 glutamine plus 320 mg kg^−1 ampicillin (group 4), 100 mg kg^−1 glucose plus 320 mg kg^−1 ampicillin (group 5), and 100 mg kg^−1 glutamine and 100 mg kg^−1 glucose plus 320 mg kg^−1 ampicillin (group 6) by tail intravenous injection for 3 days, twice-daily. Catheter tubes were extracted in 24 hours after the last treatment. […] The survival rate was calculated as: viable counts in treatment group/viable counts in control group×100%.

[2] = tested on: ampicillin-resistant Escherichia coli (AMP-R); type: cell-based; conditions: 20 mM glutamine; for killing efficiency increase compared with the treatment without glutamine: 4 hours
Protocol: (§2) Bacterium cultures of 20 mL were collected and centrifuged at 8,000 rpm for 5 minutes. The bacterial pellets were washed with equal volume of 0.85% saline solution, suspended in M9 medium containing 10 mM sodium acetate and then adjusted to OD600 of 0.5. […] These mixtures were cultured in a shaker at 200 rpm at 37° C. for 4 h. Then 100 μL of bacterial suspension was used for bacterial plate counting.
To investigate the effect of antibiotic dose on the sensitivity of bacteria to antibiotics by glutamine, 20 mM glutamine and 20, 40, 80, 160, 240, 320 and 400 μg/mL ampicillin were used to treat ampicillin-resistant Escherichia coli for 4 hours, and then bacterial plate counting was conducted. The survival rates of bacteria with and without glutamine were compared at the same antibiotic concentration.
To investigate the effect of exposure time on the killing efficiency, the viable counts of bacteria were counted during 1-8 hours after spiked with 20 mM glutamine and 160 μg/mL ampicillin.
To investigate the effect of glutamine concentration on killing efficiency and the optimum bactericidal concentrations, different concentrations of glutamine were added to 160 μg/mL ampicillin. The number of live bacteria was counted after 4 hours. The survival rate was calculated according to the formula below: viable counts at different concentration of glutamine/viable counts without glutamine×100%.
Single clone of ampicillin-resistant Escherichia coli was selected and inoculated in 100 mL LB medium and cultured at 200 rpm at 37° C. for 16 hours. Bacterial suspension of 20 mL was collected and centrifuged at 8,000 rpm for 5 min. The resulting bacterial pellets were washed with equal volume of 0.85% saline solution, suspended in M9 medium containing 10 mM sodium acetate and then adjusted to […] of 0.5. Aliquots of 5 mL bacterial cells were transferred to test tubes for further application.
The sample was added with 160 μg/mL ampicillin and 0-20 Mm glucose, then cultured in a shaker at 200 rpm at 37° C. for 4 hours. The cell number was counted and survival rate was calculated. […]

[3] = tested on: 6 species of antibiotic resistant Escherichia coli (GEN-R, AMP-R, BLFX-R, KAN-R, NA-R and CAZ-R); conditions: 20 mM glutamine plus 8 μg/mL balofloxacin, 50 μg/mL gentamicin, 160 μg/mL nalidixic acid, ceftazidime, kanamycin or ampicillin; 4 h
Protocol: as §2

[4] = tested on: antibiotic-resistant bacteria in kidneys; assay: Mouse urinary tract infection model, bacterial content in kidneys; type: in vivo; conditions: mice, tail i.v. twice-daily for 3 days; glutamine 100 mg kg−1, glucose 100 mg kg−1, ampicillin 320 mg kg−1 as present; saline group 16750
Protocol: In vivo experiments in mice, female mice (5 weeks, weighing 18-20 g) received surgical implantation in the urinary tract of PESO catheter tubes. The mice were randomly divided into six groups in 48 h after the surgery, five each group. The six groups included treatment with saline (group 1), 100 mg kg^−1 glutamine (group 2), 320 mg kg^−1 ampicillin (group 3), 100 mg kg^−1 glutamine plus 320 mg kg^−1 ampicillin (group 4), 100 mg kg^−1 glucose plus 320 mg kg^−1 ampicillin (group 5), and 100 mg kg^−1 glutamine and 100 mg kg^−1 glucose plus 320 mg kg^−1 ampicillin (group 6) by tail intravenous injection for 3 days, twice-daily. Catheter tubes were extracted in 24 hours after the last treatment. To dislodge biofilm cells, catheters were suspended in saline solution with ultrasonic. Serial dilutions and spot-plating were performed to determine the bacterial survival rate in biofilm. The survival rate was calculated as: viable counts in treatment group/viable counts in control group×100%.
Meanwhile, kidneys of mice were homogeneous with appropriate amount of saline. Bacterial content in kidneys was determined by plate counting method.

[5] = tested on: Staphylococcus aureus, Edwardsiella tarda, Beta streptococcus, Pseudomonas aeruginosa, Escherichia coli, Vibrio alginolyticus and Vibrio parahaemolyticus; assay: Plate counting of several species of bacteria with ampicillin and glutamine; type: cell-based; conditions: 20 mM glutamine and ampicillin at double MIC for each strain, 4 hours
Protocol: (Staphylococcus aureus, B. streptococcus, Pseudomonas aeruginosa, Escherichia coli) or 30° C. (the others) for 16 hours.

[6] = tested on: Escherichia coli K12 BW25113 (control bacteria); assay: Viable counts and survival rate of control bacteria; type: cell-based; conditions: 4 hours
Protocol: (§3) The viable counts and survival rate of bacteria were calculated after added with 20 mM glutamine and 160 μg/mL ampicillin for 4 hours.
(§4) The viable counts and survival rate of bacteria were calculated after added with 20 mM glutamine and 4 kinds of penicillins (does for control bacteria were: ampicillin 25 μg/mL, penicillin G 200 μg/mL, amoxicillin 20 μg/mL, carbenicillin 100 μg/mL; does for antibiotic resistant bacteria were: ampicillin 320 μg/mL, penicillin G 2560 μg/mL, amoxicillin 512 μg/mL, carbenicillin 320 μg/mL) for 4 hours.
The viable counts and survival rate of bacteria were calculated after added with 20 mM glutamine and antibiotics at the concentration of 8 times of MIC for 4 hours.

[7] = tested on: eight species of antibiotic resistant Escherichia coli; assay: Viable counts and survival rate of several antibiotic resistant bacteria with ampicillin; type: cell-based; conditions: 20 mM glutamine, 160 μg/mL ampicillin, 4 hours
Protocol: as §3

[8] = tested on: ampicillin-resistant Escherichia coli biofilm; assay: Biofilm on PE-50 catheters in vitro, survival rate; type: cell-based; conditions: 6 hours
Protocol: as §1
The test was divided into six groups: saline solution control, 20 mM glutamine, 160 μg/mL ampicillin, 160 μg/mL ampicillin plus 20 mM glutamine, 160 μg/mL ampicillin plus 20 mM glucose, 160 μg/mL ampicillin plus 20 mM glutamine and 20 mM glucose. The catheters were cultured in a shaker at 200 rpm at 37 for 6 hours. The bacterial biofilm was removed from catheters with sonication for 10 minutes. Serial dilutions and spot-plating were performed to determine the cell number. The bacterial survival rate was calculated as: viable counts in treatment group/viable counts in control group×100%.

[9] = tested on: penicillin-resistant Escherichia coli (4 antibiotic resistant bacteria); assay: Viable counts and survival rate of penicillin-resistant bacteria with 4 penicillins; type: cell-based; conditions: 20 mM glutamine with ampicillin 320 μg/mL, penicillin G 2560 μg/mL, amoxicillin 512 μg/mL or carbenicillin 320 μg/mL, 4 hours
Protocol: as §4, with “To investigate whether the sensitivity of Escherichia coli and antibiotic resistant Escherichia coli to penicillin antibiotics was improved with glutamine, the samples of control bacteria and penicillin-resistant bacteria were prepared according to Embodiment 2.1. The” for “The”, “hours. […] The sensitivity of control bacteria increased 38-1000 times and 71-1900 times for 4 antibiotic resistant bacteria when added with glutamine.” for “hours.”

## NC(=O)CC[C@H](N)C(=O)O [glutamine]
[1]
  bacterial survival rate in catheter biofilm in comparison with saline control: 88.24%
[2]; 20 μg/mL ampicillin
  killing efficiency increase compared with the treatment without glutamine: 1.12 folds
[2]; 40 μg/mL ampicillin
  killing efficiency increase compared with the treatment without glutamine: 1.57 folds
[2]; 80 μg/mL ampicillin
  killing efficiency increase compared with the treatment without glutamine: 1.95 folds
[2]; 160 μg/mL ampicillin, 4 h
  elevated sensitivity of ampicillin-resistant bacteria to ampicillin: about 200 folds
[2]; 160 μg/mL ampicillin
  killing efficiency increase compared with the treatment without glutamine: 7.66 folds
[2]; 160 μg/mL ampicillin, after 4 hours or more
  killing efficiency increase: 8-22 times
[2]; 240 μg/mL ampicillin
  killing efficiency increase compared with the treatment without glutamine: 24.29 folds
[2]; 320 μg/mL ampicillin
  killing efficiency increase compared with the treatment without glutamine: 137.78 folds
[2]; 400 μg/mL ampicillin
  killing efficiency increase compared with the treatment without glutamine: 171.34 folds and 200 folds
[3]
  sensitivity of antibiotic resistant bacteria to respective antibiotic: improved the sensitivity of 6 species of antibiotic resistant bacteria to respective antibiotic
[4]
  bacterial content in kidneys: 9113 cell/g
[5]
  sensitivity of several species of bacteria to ampicillin: improved generally
[6]; 20 mM glutamine with ampicillin 25 μg/mL, penicillin G 200 μg/mL, amoxicillin 20 μg/mL or carbenicillin 100 μg/mL
  sensitivity to four types of penicillins increased: 38-1000 times
[6]; 20 mM glutamine with tetracycline, erythromycin, clindamycin or rifampicin at 8 times of MIC
  sensitivity to 4 kinds of antibiotics improved: approximately 1.5 times
[6]; 20 mM glutamine, 160 μg/mL ampicillin
  sensitivity to ampicillin increased: 1.75 times
[7]
  sensitivity to ampicillin increased: 4-36 times
[8]; 20 mM glutamine or 160 μg/mL ampicillin alone
  elimination of biofilm by single agent: did not eliminate the antibiotic-resistant bacterium biofilm
[8]; 20 mM glutamine, 160 μg/mL ampicillin, 20 mM glucose as present
  bacterial survival rate in biofilm (treatment group/saline control): 96.03%
[9]
  sensitivity to four types of penicillins increased: 71-1900 times
